Reference: US7128926B2, “Ester compound and use thereof” (Incorporated Administrative Agency, National Agriculture …, priority 2002, dated 2006)

Test system: adult males of Pseudococcus cryptus
Assay: Biological assay of attracting activity using Petri dish (Table 1)
Assay type: in vivo
Protocol: Biological Assay of Attracting Activity Using Petri Dish […] First, two square filter papers with an area of 1 cm^2 were placed on a Petri dish with a diameter of 90 mm. Thereafter, one paper was impregnated with each of sample solutions (shown in Tables 1 and 2) (100 μl of a stock solution in the case of each fraction shown in Table 1 and a crude extract shown in Table 2, and 10 μl of a stock solution in the case of an acetylated product shown in Table 2), and it was defined as a treated group. The other paper was impregnated with only a solvent (100 μl), and it was defined as a control group. […] The Petri dish was then capped. Approximately 10 to 60 minutes later, when the movement of the males stopped, the presence or absence of attracting activity was confirmed from the ratio of males attracted to each filter paper.

Q: For C=C(C)CC(=O)OCC1CC(C(=C)C)C1(C)C (stereo not shown) [formula (I), 3-isopropenyl-2,2-dimethylcyclobutylmethyl 3-methyl-3-butenoate], which “attracting activity towards adult males of Pseudococcus cryptus (in words)” value is on record?
A: activity of attracting adult males of Pseudococcus cryptus
